“Also recorded” adds a separate entry of the source.
Tests used:
angiogenesis = assay: Angiogenesis inhibition by CD31 staining; assay type: in vivo
[1] = system: HT-29 colorectal xenografts; assay: Tumor growth inhibition in mice with HT-29 colorectal xenografts; assay type: in vivo; details: single agent, daily 10 mg/kg p.o., HT-29 xenografts, sub-optimal dose
Description: (§1) A panel of 14 well-characterized human colorectal cancer cell lines were used to characterize the in vitro effects of BIBF 1120 (B1), BIBW 2992 (B2) and their combinations. The antitumor effects of the 2 drugs were evaluated in mice with HT-29 colorectal xenografts.
The tumor growth inhibitory activities of B1 and B2 were determined for HT-29 xenografts after daily drug administration (10 mg/kg p.o.) or, for control animals, by oral administration of the solvent. […] Since the studies were designed to detect additive or synergistic interactions between the two drugs in subsequent experiments, only sub-optimal doses were used in these studies. Each group represents at least seven mice.
The tumor growth inhibitory activities of B1 and B2 were determined for HT-29 xenografts after daily drug administration (10 mg/kg p.o.) or, for control animals, by oral administration of the solvent.

[2] = system: human colorectal cancer cell lines; assay: In vitro effects on human colorectal cancer cell lines; assay type: cell-based; details: for cytotoxic activity: conclusion, single agent; for growth inhibition / cell cycle effect: exposure of colorectal cancer cells to single agent
Description: as §1

SMILES: COC(=O)c1ccc2c(c1)NC(=O)/C2=C(\Nc1ccc(N(C)C(=O)CN2CCN(C)CC2)cc1)c1ccccc1 [B1, 3-Z-[1-(4-(N-((4-methyl-piperazin-1-yl)-methylcarbonyl)-N-methyl-amino)-anilino)-1-phenyl-methylene]-6-methoxycarbonyl-2-indolinone]
- inhibition of angiogenesis (angiogenesis): inhibited angiogenesis; also recorded: antiangiogenic activity
- tumor growth inhibitory activity (tumor volume over treatment time) [1]: exhibit growth inhibitor activity
- cytotoxic activity [2]: cytotoxic
- growth inhibition / cell cycle effect [2]: growth inhibition linked to extensive G1 arrest

SMILES: CN(C)C/C=C/C(=O)Nc1cc2c(Nc3ccc(F)c(Cl)c3)ncnc2cc1O[C@H]1CCOC1 [B2, 4-[(3-chloro-4-fluorophenyl)amino]-6-{[4-(N,N-dimethylamino)-1-oxo-2-buten-1-yl]amino}-7-((S)-tetrahydrofuran-3-yloxy)-quinazoline]
- inhibition of angiogenesis (angiogenesis): inhibited angiogenesis; also recorded: antiangiogenic activity
- tumor growth inhibitory activity (tumor volume over treatment time) [1]: exhibit growth inhibitor activity
- cytotoxic activity [2]: cytotoxic
- growth inhibition / cell cycle effect [2]: growth inhibition linked to extensive G1 arrest
